Reference: patent US20170165317A1, “METHOD FOR MITIGATING OR ALLEVIATING SYNAPTIC AND COGNITIVE DEFICITS” (Trustees of Dartmouth College, priority 2013, published 2017)

Experiments:
[1] = tested on: APPswe/lnd-EGFP infected neurons; assay: APP expression, APP fragments and Aβ production/secretion in APPswe/lnd-infected slice cultures (ELISA, western blot); type: cell-based, rat; settings: slice cultures with or without PTEN inhibitor
Method: Hippocampal slices overexpressing Aβ were maintained for 3 days after virus injection with or without the PTEN inhibitor VO-OHpic, before culture medium was collected for measurements. Aβ40 and Aβ42 level were determined in solubilized hippocampal fractions, cultured hippocampal slices or conditioned media by ELISA according to the manufacturer's instructions (WAKO/Invitrogen) that specifically detect the C-terminus of Aβ40 and Aβ42, respectively.
Hippocampi from APP/PS1 mice or their wild-type littermates and organotypic hippocampal slices infected with APPswe/lnd-EGFP/APPwt-EGFP/APPMV-EGFP were solubilized, and extracts were prepared for western blot analysis. […] APPsα was detected in conditioned media of the respective slices using antibody 6E10 that selectively detects human APPsα. Levels of APP, CTFα and CTFβ were detected in lysates of the infected slices using APPCt antibody. […]
However, this form of depression may in principle be due to Aβ exposure, to intracellular fragments derived from APP processing, or a combination thereof. To test the role of PTEN specifically in the effects of neuron-secreted Aβ, synaptic dysfunctions were monitored in untransfected cells neighboring APPswe/lnd-expressing neurons. […]

[2] = tested on: APPswe/lnd-expressing neurons; assay: Paired whole-cell recording of AMPAR-mediated EPSCs in APPswe/lnd-expressing CA1 neurons of organotypic hippocampal slices; type: cell-based, rat; settings: 15 nM bPV(HOpic) or 50 nM VO-OHpic during expression
Method: The effect of recombinant protein expression on synaptic transmission was evaluated by simultaneous double whole-cell recordings from pairs of nearby infected and uninfected CA1 neurons, under voltage clamp, while stimulating presynaptic Schaffer collateral fibers (under this configuration, recombinant proteins are expressed exclusively in the postsynaptic neuron).
The different versions of APP (APPwt, APPswe/lnd APPMV) and EGFP were co-expressed using an internal ribosomal entry site (IRES) construct. The EGFP-tagged versions of PTEN have been described (Jurado, et al. (2010) EMBO J. 29:2827-2840). All constructs were prepared in pSinRep5 for expression using Sindbis virus. Recombinant proteins were expressed in hippocampal CA1 pyramidal neurons from organotypic slice cultures. Organotypic hippocampal slices were prepared from postnatal day 5-7 rats and cultured during 6-8 days.
The external solution (aCSF) contained 119 mM NaCl, 2.5 mM KCl, 1 mM NaH2PO4, 11 mM glucose, 26 mM NaHCO3, 4 mM MgCl2, 4 mM CaCl2, 100 μM picrotoxin and 2 μM 2-chloroadenosine, pH 7.4, and was gassed with 95% O2 and 5% CO2. […] Bipolar stimulating electrodes were placed over Schaffer collateral fibers between 250 and 300 μm from the CA1 recorded cells, and synaptic responses were evoked with single voltage pulses (200 μs, up to 30 V). […]

O=C(O)c1ncccc1O.O=C(O)c1ncccc1O.[O]=[V][O-] [VO-OHpic]
recombinant APP expression, formation of C-terminal APP fragments, Aβ production/secretion [1]: independent of VO-OHpic treatment
AMPAR-mediated EPSCs in APPswe/lnd-expressing neurons relative to uninfected cells [2]: no longer depressed
